{"source": "patent US20150087673A1", "about": "“METHODS FOR USING AND BIOMARKERS FOR AMPK-ACTIVATING COMPOUNDS” (RIGEL PHARMACEUTICALS, INC., priority 2013, published 2015)"}
{"system": "AMPK", "experiment": "AMPK activation assay (enzyme-linked immunosorbent assay)", "type": "cell-based", "experimental": "Compounds were assayed for their ability to activate AMPK using an enzyme-linked immunosorbent assay. Reagents and procedures for measuring AMPK activation are well known and kits for AMPK activation assays are commercially available.", "units": {"EC50": "nM"}}
{"molecule": "O=C(N[C@@H]1CCNC[C@@H]1F)c1ccc(C(=O)N2CCN(Cc3ccc(F)cc3)CC2)cn1", "note": "(relative stereo) [Compound 102, 5-(4-(4-fluorobenzyl)piperazine-1-carbonyl)-N-(cis-3-fluoropiperidin-4-yl)picolinamide]", "EC50": "5000 to 10000"}
{"molecule": "O=C(N[C@@H]1CCN(Cc2ccncc2)C[C@@H]1F)c1ccc(C(=O)N2CCN(Cc3ccc(F)cc3)CC2)cn1", "note": "(relative stereo) [Compound 104, N-(cis-3-fluoro-1-(pyridin-4-ylmethyl)piperidin-4-yl)-5-(4-(4-fluorobenzyl)piperazine-1-carbonyl)picolinamide]", "EC50": "< 500"}
{"molecule": "O=C(N[C@@H]1CCN(Cc2ccc(Cl)cc2)C[C@@H]1F)c1ccc(C(=O)N2CCN(Cc3ccc(F)cc3)CC2)cn1", "note": "(relative stereo) [Compound 127, N-(cis-1-(4-chlorobenzyl)-3-fluoropiperidin-4-yl)-5-(4-(4-fluorobenzyl)piperazine-1-carbonyl)picolinamide]", "EC50": "< 500"}
{"molecule": "CS(=O)(=O)c1ccc(C(=O)C2CCN(C(=O)c3ccc(C(=O)N[C@@H]4CCN(Cc5ccc(C#N)cc5)C[C@H]4F)nc3)CC2)cc1", "note": "(relative stereo) [Compound 252, N-((trans)-1-(4-cyanobenzyl)-3-fluoropiperidin-4-yl)-5-(4-(4-(methylsulfonyl)benzoyl)piperidine-1-carbonyl)picolinamide]", "EC50": "500 to 1000"}
{"molecule": "CS(=O)(=O)c1ccc(C(=O)C2CCN(C(=O)c3ccc(C(=O)N[C@@H]4CCN(Cc5ccc(OC(F)(F)F)cc5)C[C@H]4F)nc3)CC2)cc1", "note": "(relative stereo) [Compound 253, N-((trans)-3-fluoro-1-(4-(trifluoromethoxy)benzyl)piperidin-4-yl)-5-(4-(4-(methylsulfonyl)benzoyl)piperidine-1-carbonyl)picolinamide]", "EC50": "500 to 1000"}
{"molecule": "CS(=O)(=O)c1ccc(OC2CCN(C(=O)c3ccc(C(=O)N[C@@H]4CCN(Cc5ccc(C#N)cc5)C[C@H]4F)nc3)CC2)cc1", "note": "(relative stereo) [Compound 254, N-((trans)-1-(4-cyanobenzyl)-3-fluoropiperidin-4-yl)-5-(4-(4-(methylsulfonyl)phenoxy)piperidine-1-carbonyl)picolinamide]", "EC50": "< 500"}
{"molecule": "CS(=O)(=O)c1ccc(OC2CCN(C(=O)c3ccc(C(=O)N[C@@H]4CCN(Cc5ccc(OC(F)(F)F)cc5)C[C@H]4F)nc3)CC2)cc1", "note": "(relative stereo) [Compound 255, N-((trans)-3-fluoro-1-(4-(trifluoromethoxy)benzyl)piperidin-4-yl)-5-(4-(4-(methylsulfonyl)phenoxy)piperidine-1-carbonyl)picolinamide]", "EC50": "< 500"}
{"molecule": "N#Cc1ccc(CN2CCC(NC(=O)c3ccc(C(=O)N4CC[C@H](Oc5ccc(C#N)cc5)[C@@H](F)C4)cn3)CC2)cc1", "note": "(relative stereo) [Compound 279, N-(1-(4-cyanobenzyl)piperidin-4-yl)-5-((trans)-4-(4-cyanophenoxy)-3-fluoropiperidine-1-carbonyl)picolinamide]", "EC50": "< 500"}
{"molecule": "COc1ccc(C(=O)C2CCN(C(=O)c3ccc(C(=O)N[C@@H]4CCN(Cc5ccc(C#N)cc5)C[C@H]4F)cn3)CC2)cc1", "note": "(relative stereo) [Compound 349, N-((trans)-1-(4-cyanobenzyl)-3-fluoropiperidin-4-yl)-6-(4-(4-methoxybenzoyl)piperidine-1-carbonyl)nicotinamide]", "EC50": "< 500"}
{"molecule": "COc1ccc(C(=O)C2CCN(C(=O)c3ccc(C(=O)N[C@@H]4CCN(Cc5ccc(OC(F)(F)F)cc5)C[C@H]4F)cn3)CC2)cc1", "note": "(relative stereo) [Compound 350, N-((trans)-3-fluoro-1-(4-(trifluoromethoxy)benzyl)piperidin-4-yl)-6-(4-(4-methoxybenzoyl)piperidine-1-carbonyl)nicotinamide]", "EC50": "< 500"}
{"molecule": "COc1ccc(C(=O)C2CCN(C(=O)c3ccc(C(=O)N[C@@H]4CCN(Cc5ccc(N6CCCC6)cc5)C[C@H]4F)cn3)CC2)cc1", "note": "(relative stereo) [Compound 352, N-((trans)-3-fluoro-1-(4-(pyrrolidin-1-yl)benzyl)piperidin-4-yl)-6-(4-(4-methoxybenzoyl)piperidine-1-carbonyl)nicotinamide]", "EC50": "< 500"}
{"molecule": "COc1ccc(C(=O)C2CCN(C(=O)c3ccc(C(=O)N[C@@H]4CCN(Cc5ccc(OC(C)C)cc5)C[C@H]4F)cn3)CC2)cc1", "note": "(relative stereo) [Compound 353, N-((trans)-3-fluoro-1-(4-isopropoxybenzyl)piperidin-4-yl)-6-(4-(4-methoxybenzoyl)piperidine-1-carbonyl)nicotinamide]", "EC50": "< 500"}
{"molecule": "COc1ccc(C(=O)C2CCN(C(=O)c3ccc(C(=O)N[C@@H]4CCN(Cc5ccc(C#N)c(F)c5)C[C@H]4F)cn3)CC2)cc1", "note": "(relative stereo) [Compound 354, N-((trans)-1-(4-cyano-3-fluorobenzyl)-3-fluoropiperidin-4-yl)-6-(4-(4-methoxybenzoyl)piperidine-1-carbonyl)nicotinamide]", "EC50": "< 500"}
{"molecule": "N#Cc1ccc(CN2CC[C@@H](NC(=O)c3ccc(C(=O)N4CCC(Oc5ccc(S(=O)(=O)C(F)(F)F)cc5)CC4)nc3)[C@H](F)C2)cc1", "note": "(relative stereo) [Compound 451, N-((trans)-1-(4-cyanobenzyl)-3-fluoropiperidin-4-yl)-6-(4-(4-(trifluoromethylsulfonyl)phenoxy)piperidine-1-carbonyl)nicotinamide]", "EC50": "< 500"}
{"molecule": "COc1ccc(C(=O)C2CCN(C(=O)c3ccc(C(=O)N[C@@H]4CCN(Cc5ccc(C#N)cc5)C[C@@H]4F)cn3)CC2)cc1", "note": "(relative stereo) [Compound 454, N-((cis)-1-(4-cyanobenzyl)-3-fluoropiperidin-4-yl)-6-(4-(4-methoxybenzoyl)piperidine-1-carbonyl)nicotinamide]", "EC50": "< 500"}
{"molecule": "COc1ccc(C(=O)C2CCN(C(=O)c3ccc(C(=O)N[C@@H]4CCN(Cc5ccc(OC(F)(F)F)cc5)C[C@@H]4F)cn3)CC2)cc1", "note": "(relative stereo) [Compound 461, N-((cis)-3-fluoro-1-(4-(trifluoromethoxy)benzyl)piperidin-4-yl)-6-(4-(4-methoxybenzoyl)piperidine-1-carbonyl)nicotinamide]", "EC50": "< 500"}
{"molecule": "N#Cc1ccc(CN2CCC(NC(=O)c3ccc(C(=O)N4CCN(Cc5ccc(F)cc5)CC4)nc3)CC2)cc1", "note": "[Compound 1]", "EC50": "< 500"}
{"molecule": "N#Cc1ccc(CN2CCC(NC(=O)c3ccc(C(=O)N4CCNCC4)cn3)CC2)cc1", "note": "[Compound 2, N-(1-(4-cyanobenzyl)piperidin-4-yl)-5-(piperazine-1-carbonyl)picolinamide]", "EC50": "> 10000"}
{"molecule": "O=C(c1ccc(C(=O)N2CCN(Cc3ccc(F)cc3)CC2)nc1)N1CCN(Cc2ccc(F)cc2)CC1", "note": "[Compound 3, pyridine-2,5-diylbis((4-(4-fluorobenzyl)piperazin-1-yl)methanone)]", "EC50": "500 to 1000"}
{"molecule": "N#Cc1ccc(C(=O)N2CCC(NC(=O)c3ccc(C(=O)N4CCN(Cc5ccc(F)cc5)CC4)cn3)CC2)cc1", "note": "[Compound 4, N-(1-(4-cyanobenzoyl)piperidin-4-yl)-5-(4-(4-fluorobenzyl)piperazine-1-carbonyl)picolinamide]", "EC50": "500 to 1000"}
{"molecule": "N#Cc1ccc(CN2CCC(NC(=O)c3ccc(C(=O)Nc4cccc(Cc5ccccc5)c4)cn3)CC2)cc1", "note": "[Compound 5, N^2-(1-(4-cyanobenzyl)piperidin-4-yl)-N^5-(3-benzylphenyl)pyridine-2,5-dicarboxamide]", "EC50": "500 to 1000"}
{"molecule": "O=C(NC1CCN(C(=O)C2CCCCC2)CC1)c1ccc(C(=O)N2CCN(Cc3ccc(F)cc3)CC2)cn1", "note": "[Compound 7, N-(1-(cyclohexanecarbonyl)piperidin-4-yl)-5-(4-(4-fluorobenzyl)piperazine-1-carbonyl)picolinamide]", "EC50": "< 500"}
{"molecule": "O=C(NC1CCN(C(=O)c2ccccc2)CC1)c1ccc(C(=O)N2CCN(Cc3ccc(F)cc3)CC2)cn1", "note": "[Compound 8, N-(1-(benzoyl)piperidin-4-yl)-5-(4-(4-fluorobenzyl)piperazine-1-carbonyl)picolinamide]", "EC50": "< 500"}
{"molecule": "N#Cc1ccc(Cn2ccc(NC(=O)c3ccc(C(=O)N4CCN(Cc5ccc(F)cc5)CC4)cn3)n2)cc1", "note": "[Compound 9, N-(1-(4-cyanobenzyl)-1H-pyrazol-3-yl)-5-(4-(4-fluorobenzyl)piperazine-1-carbonyl)picolinamide]", "EC50": "< 500"}
{"molecule": "O=C(Nc1ccc(Cc2ccccc2)cc1)c1ccc(C(=O)N2CCN(Cc3ccc(F)cc3)CC2)cn1", "note": "[Compound 10, N-(4-benzylphenyl)-5-(4-(4-fluorobenzyl)piperazine-1-carbonyl)picolinamide]", "EC50": "< 500"}
{"molecule": "O=C(Nc1ccc(-c2ccccc2)cc1)c1ccc(C(=O)N2CCN(Cc3ccc(F)cc3)CC2)cn1", "note": "[Compound 11]", "EC50": "< 500"}
{"molecule": "O=C(Nc1cccc(-c2ccccc2)c1)c1ccc(C(=O)N2CCN(Cc3ccc(F)cc3)CC2)cn1", "note": "[Compound 12]", "EC50": "5000 to 10000"}
{"molecule": "O=C(NC1CCN(CC2CCCCC2)CC1)c1ccc(C(=O)N2CCN(Cc3ccc(F)cc3)CC2)cn1", "note": "[Compound 13, N-(1-(cyclohexylmethyl)piperidin-4-yl)-5-(4-(4-fluorobenzyl)piperazine-1-carbonyl)picolinamide]", "EC50": "1000 to 5000"}
{"molecule": "O=C(NC1CCN(c2ccccc2)CC1)c1ccc(C(=O)N2CCN(Cc3ccc(F)cc3)CC2)cn1", "note": "[Compound 14, 5-(4-(4-fluorobenzyl)piperazine-1-carbonyl)-N-(1-(phenyl)piperidin-4-yl)picolinamide]", "EC50": "500 to 1000"}
{"molecule": "N#Cc1ccc(CN2CCC3(CCN(C(=O)c4ccc(C(=O)N5CCN(Cc6ccc(F)cc6)CC5)cn4)CC3)C2)cc1", "note": "[Compound 15, 4-((8-(5-(4-(4-fluorobenzyl)piperazine-1-carbonyl)picolinoyl)-2,8-diazaspiro[4.5]decan-2-yl)methyl)benzonitrile]", "EC50": "1000 to 5000"}
{"molecule": "O=C(Nc1ccc(Oc2ccccc2)cc1)c1ccc(C(=O)N2CCN(Cc3ccc(F)cc3)CC2)cn1", "note": "[Compound 16, 5-(4-(4-fluorobenzyl)piperazine-1-carbonyl)-N-(4-phenoxyphenyl)picolinamide]", "EC50": "< 500"}
{"molecule": "O=C(c1ccc(-c2ccc(OCc3ccccc3)cc2)nc1)N1CCN(Cc2ccc(F)cc2)CC1", "note": "[Compound 17, (4-(4-fluorobenzyl)piperazin-1-yl)(6-(4-(benzyloxy)phenyl)pyridin-3-yl)methanone]", "EC50": "> 10000"}
